Source: patent US20200024246A1, “POGOSTONE DERIVATIVES AND METHODS OF USING THE SAME” (Hamyard Associates LLC, priority 2018, published 2020)
Where “and” joins values, the source holds several entries; their conditions need not be identical. Identical values can stand only once.

Columns and labels:
adult flies = experiment: Contact toxicity on treated filter paper; type: in vivo; settings: filter paper treated with 1 mL in acetone; 24 hours
Procedure: Filter papers were treated with 1 mL of the disclosed compounds in acetone at varying concentrations, and the filter papers were placed in a dish. Ten adult flies were added to each dish and a sugar pad was added to each dish to ensure that any mortality could be attributed to the compound instead of starvation. Mortality was assessed at 24 hours.

soybean aphids = experiment: Soybean aphid leaf dip assay for DHAA-based derivatives; type: in vivo; settings: 24 hours
Procedure: Isolated soybean leaves were dipped into a pyrone solution containing either 0.5% or 1.5% of select DHAA-based derivatives. The leaves were allowed to dry for 30 minutes, and then place in a dish. Ten soybean aphids were placed on each leaf. Mortality was assessed at 24 hours.

house flies = experiment: Knockdown and mortality of DHAA-based derivatives on house flies; type: in vivo, house fly
Description: Accordingly, further derivatives with structures similar to Formula C3 were synthesized and tested for knockdown potential and mortality in house flies and mosquitoes using an experimental design similar to the one described above. These compounds include Formula C5, Formula C6, Formula C7, Formula C8, Formula C9, and Formula C10.

adult female mosquitoes = experiment: whole plant or invertebrate
Procedure: The first group of DHAA-based derivatives that were tested included Formula A2, Formula B3, Formula C3, and Formula D3. A solution of 0.5% or 1.5% of each of these compounds was applied to the mosquitoes, as described above. […] Acetone was used as a control.

[1] = tested on: Dandelion (Taraxacum officinale); experiment: Soil drench herbicidal test, dandelion; type: in vivo; settings: Dandelion; 2 weeks after soil drench - 40 mL of 0.5% solution; Rep 1 and 2
Procedure: Dandelion (Taraxacum officinale) seeds were obtained from the Department of Agronomy at Iowa State University. Individual seeds were sown for each pot (6″ wide×4.5″ deep) with approximately 800 mL of soil for each plan. Only plants that germinated were used for the study. Plants were treated 1-2 weeks post emergence. Plants were watered every 2-3 days as needed. Giant foxtail (Setaria faberi) seeds were obtained from the Department of Agronomy at Iowa State University. Three seeds were sown for each pot (6″ wide×4.5″ deep) with approximately 800 mL of soil for each plan. Only plants that germinated were used for the study. Plants were treated 1-2 weeks post emergence. Plants were watered every 2-3 days as needed.
Formulations of the various active ingredients were created using the disclosed pogostone derivatives and Triton-X 100 to aid in the solvation of the active ingredient. Formulations consisted of 0.5% active ingredient by weight. […] 40 mL of formulation ([…] active ingredient) was applied to each pot containing approximately 3-5 plants per pot at 2-3 weeks after emergence. Observations were performed 3 days and 2 weeks after soil drench to determine the effects of the treatments on the various types and stages of plants. […]

Cc1cc(O)c(C(=O)CC(O)C(C)C)c(=O)o1 (centres unmarked) [Formula C10]
percent mortality, 0.10% Concentration (adult flies): 15% | percent mortality, 0.25% Concentration (adult flies): 0% | percent mortality, 0.50% Concentration (adult flies): 45% | soybean aphids dead (soybean aphids; leaf dipped in 0.5% solution): Roughly 67% | soybean aphids dead (soybean aphids; leaf dipped in 1.5% solution): Roughly 90% | House Fly Knockdown at 0.5% concentration (house flies; 0.5% concentration): 52.5% | House Fly Mortality at 0.5% concentration (house flies; 0.5% concentration): 23% | House Fly Knockdown at 1.5% concentration (house flies; 1.5% concentration): 64% | House Fly Mortality at 1.5% concentration (house flies; 1.5% concentration): 24% | Mosquito Knockdown at 0.5% concentration (adult female mosquitoes; 0.5% concentration): 100% | Mosquito Mortality at 0.5% concentration (adult female mosquitoes; 0.5% concentration): 100% | Mosquito Knockdown at 1.5% concentration (adult female mosquitoes; 1.5% concentration): 100% | Mosquito Mortality at 1.5% concentration (adult female mosquitoes; 1.5% concentration): 100% | 1-hour Knockdown EC50 (μg/g mosquito) (adult female mosquitoes; mosquito, topical, 1 hour): 49 μg/g mosquito | LD50 (adult female mosquitoes; topical, 24 h, read-out: 24-hour Mortality LD50 (μg/g mosquito)): 29 mg/kg | ranking in knockdown and mortality screenings (adult female mosquitoes; words): performed the best in the initial knockdown and mortality screenings

O=C(O)COc1ccc(Cl)cc1Cl [2,4-D, 2,4-dichlorophenoxyacetic acid]
% mortality [1]: 100% and 80%
